# From ChEMBL document CHEMBL1147193, “New 5-substituted thiazolo[3,2-b][1,2,4]triazol-6-ones: synthesis and anticancer evaluation” (2007)
# Legend:
# Assay type in all cases: functional
# TK-10 = experiment: Growth inhibition of human TK10 cells after 48 hrs by SRB protein assay; conditions: TK-10, 48 h
# PC-3 = experiment: Growth inhibition of human PC3 cells after 48 hrs by SRB protein assay; conditions: PC-3, 48 h
# RPMI-8226 = experiment: Growth inhibition of human RPMI8226 cells after 48 hrs by SRB protein assay; conditions: RPMI-8226, 48 h
# MDA-MB-435 = experiment: Growth inhibition of human MDA-MB-435 cells after 48 hrs by SRB protein assay; conditions: MDA-MB-435, 48 h
# SK-OV-3 = experiment: Growth inhibition of human SK-OV-3 cells after 48 hrs by SRB protein assay; conditions: SK-OV-3, 48 h
# HCC 2998 = experiment: Growth inhibition of human HCC2998 cells after 48 hrs by SRB protein assay; conditions: HCC 2998, 48 h
# ACHN = experiment: Growth inhibition of human ACHN cells after 48 hrs by SRB protein assay
# CCRF-CEM = experiment: Growth inhibition of human CCRF-CEM cells after 48 hrs by SRB protein assay
# SF-268 [1] = experiment: Growth inhibition of human SF268 cells after 48 hrs by SRB protein assay; conditions: SF-268, 48 h
# Hs-578T = experiment: Growth inhibition of human HS578T cells after 48 hrs by SRB protein assay
# UACC-257 = experiment: Growth inhibition of human UACC257 cells after 48 hrs by SRB protein assay; conditions: UACC-257, 48 h
# HCT-15 = experiment: Growth inhibition of human HCT15 cells after 48 hrs by SRB protein assay; conditions: HCT-15, 48 h
# SW-620 = experiment: Growth inhibition of human SW620 cells after 48 hrs by SRB protein assay; conditions: SW-620, 48 h
# OVCAR-3 = experiment: Growth inhibition of human OVCAR-3 cells after 48 hrs by SRB protein assay; conditions: OVCAR-3, 48 h
# MCF7 [2] = experiment: Growth inhibition of human MCF7 cells after 48 hrs by SRB protein assay; conditions: MCF7, 48 h
# SK-MEL-5 = experiment: Growth inhibition of human SK-MEL-5 cells after 48 hrs by SRB protein assay; conditions: SK-MEL-5, 48 h
# A549 = experiment: Growth inhibition of human A549/ATCC cells after 48 hrs by SRB protein assay; conditions: A549, 48 h
# NCI-H322M = experiment: Growth inhibition of human NCI-H322M cells after 48 hrs by SRB protein assay
# OVCAR-4 = experiment: Growth inhibition of human OVCAR4 cells after 48 hrs by SRB protein assay; conditions: OVCAR-4, 48 h
# SN12C = experiment: Growth inhibition of human SN12C cells after 48 hrs by SRB protein assay
# LOX IMVI = experiment: Growth inhibition of human LOX IMVI cells after 48 hrs by SRB protein assay
# CAKI-1 = experiment: Growth inhibition of human CAKI1 cells after 48 hrs by SRB protein assay; conditions: CAKI-1, 48 h
# M14 = experiment: Growth inhibition of human M14 cells after 48 hrs by SRB protein assay; conditions: M14, 48 h
# IGROV-1 = experiment: Growth inhibition of human IGROV1 cells after 48 hrs by SRB protein assay; conditions: IGROV-1, 48 h
# SF-268 [3] = experiment: Anticancer activity against human SF268 cells assessed as growth of cells at 100 uM relative to untreated cells
# NCI-H460 [4] = experiment: Growth inhibition of human NCI-H460 cells after 48 hrs by SRB protein assay; conditions: NCI-H460, 48 h
# [5] = Growth inhibition of human MDA-MB-231/ATCC cells after 48 hrs by SRB protein assay; conditions: MDA-MB-231, 48 h
# U-251 = experiment: Growth inhibition of human U251 cells after 48 hrs by SRB protein assay; conditions: U-251, 48 h
# UO-31 = experiment: Growth inhibition of human UO31 cells after 48 hrs by SRB protein assay; conditions: UO-31, 48 h
# SK-MEL-28 = experiment: Growth inhibition of human SK-MEL-28 cells after 48 hrs by SRB protein assay; conditions: SK-MEL-28, 48 h
# SF-295 = experiment: Growth inhibition of human SF295 cells after 48 hrs by SRB protein assay; conditions: SF-295, 48 h
# NCI-H460 [6] = experiment: Anticancer activity against human NCI-H460 cells assessed as growth of cells at 100 uM relative to untreated cells
# KM12 = experiment: Growth inhibition of human KM12 cells after 48 hrs by SRB protein assay; conditions: KM12, 48 h
# UACC-62 = experiment: Growth inhibition of human UACC62 cells after 48 hrs by SRB protein assay; conditions: UACC-62, 48 h
# MCF7 [7] = experiment: Anticancer activity against human MCF7 cells assessed as growth of cells at 100 uM relative to untreated cells
# OVCAR-5 = experiment: Growth inhibition of human OVCAR5 cells after 48 hrs by SRB protein assay; conditions: OVCAR-5, 48 h
# OVCAR-8 = experiment: Growth inhibition of human OVCAR8 cells after 48 hrs by SRB protein assay; conditions: OVCAR-8, 48 h
# COLO 205 = experiment: Growth inhibition of human COLO205 cells after 48 hrs by SRB protein assay; conditions: COLO 205, 48 h
# HOP-92 = experiment: Growth inhibition of human HOP92 cells after 48 hrs by SRB protein assay; conditions: HOP-92, 48 h
# [8] = Growth inhibition of human MALME 3M cells after 48 hrs by SRB protein assay
compound,measurement,setting,value
O=C(CC1Sc2ncnn2C1=O)Nc1ccc(Br)cc1 (configuration not stated),GI50,TK-10,17.4 µM
same,TGI,TK-10; read-out: Log TGI (converted),31.6 µM
same,GI50,PC-3,26.9 µM
same,TGI,PC-3; read-out: Log TGI (converted),95.5 µM
same,GI50,RPMI-8226,23.4 µM
same,TGI,RPMI-8226; read-out: Log TGI (converted),64.6 µM
same,GI50,MDA-MB-435,31.6 µM
same,TGI,MDA-MB-435; read-out: Log TGI (converted),> 100 µM
same,GI50,SK-OV-3,> 100 µM
same,TGI,SK-OV-3; read-out: Log TGI (converted),> 100 µM
same,GI50,HCC 2998,> 100 µM
same,TGI,HCC 2998; read-out: Log TGI (converted),> 100 µM
same,GI50,ACHN,15.1 µM
same,TGI,ACHN; read-out: Log TGI (converted),28.2 µM
same,GI50,CCRF-CEM,21.4 µM
same,TGI,CCRF-CEM; read-out: Log TGI (converted),55 µM
same,GI50,SF-268 [1],> 100 µM
same,TGI,SF-268 [1]; read-out: Log TGI (converted),> 100 µM
same,GI50,Hs-578T,7.24 µM
same,TGI,Hs-578T; read-out: Log TGI (converted),20 µM
same,GI50,UACC-257,17.4 µM
same,TGI,UACC-257; read-out: Log TGI (converted),33.1 µM
same,GI50,HCT-15,14.8 µM
same,TGI,HCT-15; read-out: Log TGI (converted),28.2 µM
same,GI50,SW-620,44.7 µM
same,TGI,SW-620; read-out: Log TGI (converted),> 100 µM
same,GI50,OVCAR-3,20 µM
same,TGI,OVCAR-3; read-out: Log TGI (converted),37.2 µM
same,GI50,MCF7 [2],26.9 µM
same,TGI,MCF7 [2]; read-out: Log TGI (converted),74.1 µM
same,GI50,SK-MEL-5,18.6 µM
same,TGI,SK-MEL-5; read-out: Log TGI (converted),38.9 µM
same,GI50,A549,35.5 µM
same,TGI,A549; read-out: Log TGI (converted),> 100 µM
same,GI50,NCI-H322M,> 100 µM
same,TGI,NCI-H322M; read-out: Log TGI (converted),> 100 µM
same,GI50,OVCAR-4,31.6 µM
same,TGI,OVCAR-4; read-out: Log TGI (converted),> 100 µM
same,GI50,SN12C,22.9 µM
same,TGI,SN12C; read-out: Log TGI (converted),63.1 µM
same,GI50,LOX IMVI,16.2 µM
same,TGI,LOX IMVI; read-out: Log TGI (converted),31.6 µM
same,GI50,CAKI-1,20.4 µM
same,TGI,CAKI-1; read-out: Log TGI (converted),43.7 µM
same,GI50,M14,15.8 µM
same,TGI,M14; read-out: Log TGI (converted),29.5 µM
same,GI50,IGROV-1,34.7 µM
same,TGI,IGROV-1; read-out: Log TGI (converted),> 100 µM
same,Activity,SF-268 [3],100%
same,GI50,NCI-H460 [4],> 100 µM
same,TGI,NCI-H460 [4]; read-out: Log TGI (converted),> 100 µM
same,GI50,[5],17 µM
same,TGI,[5]; read-out: Log TGI (converted),36.3 µM
same,GI50,U-251,16.6 µM
same,TGI,U-251; read-out: Log TGI (converted),31.6 µM
same,GI50,UO-31,18.6 µM
same,TGI,UO-31; read-out: Log TGI (converted),38 µM
same,GI50,SK-MEL-28,23.4 µM
same,TGI,SK-MEL-28; read-out: Log TGI (converted),70.8 µM
same,GI50,SF-295,> 100 µM
same,TGI,SF-295; read-out: Log TGI (converted),> 100 µM
same,Activity,NCI-H460 [6],0%
same,GI50,KM12,> 100 µM
same,TGI,KM12; read-out: Log TGI (converted),> 100 µM
same,GI50,UACC-62,> 100 µM
same,TGI,UACC-62; read-out: Log TGI (converted),> 100 µM
same,Activity,MCF7 [7],0%
same,GI50,OVCAR-5,16.2 µM
same,TGI,OVCAR-5; read-out: Log TGI (converted),29.5 µM
same,GI50,OVCAR-8,18.2 µM
same,TGI,OVCAR-8; read-out: Log TGI (converted),38 µM
same,GI50,COLO 205,17.8 µM
same,TGI,COLO 205; read-out: Log TGI (converted),37.2 µM
same,GI50,HOP-92,22.4 µM
same,TGI,HOP-92; read-out: Log TGI (converted),49 µM
same,GI50,[8],14.5 µM
same,TGI,[8]; read-out: Log TGI (converted),31.6 µM
